Literature values as cited in paper PMC6050274, “Buparlisib is a brain penetrable pan-PI3K inhibitor” (Scientific Reports, 2018).

Details: cited from earlier work

SMILES | brain-plasma ratio
COC1(c2sc3c(N4CCOCC4)nc(-c4cnc(N)nc4)nc3c2C)COC1 [GNE-317] | ≤ 1
Cn1c(=O)n(-c2ccc(C(C)(C)C#N)cc2)c2c3cc(-c4cnc5ccccc5c4)ccc3ncc21 [NVP-BEZ235] | ≤ 1
FC(F)c1nc2ccccc2n1-c1nc(N2CCOCC2)nc(N2CCOCC2)n1 [ZSTK474] | ≤ 1
